Measurements taken from the supplement of paper PMC10627819.

Legend:
[1] = test system: B. subtilis 168; assay: fitness (endpoint OD595 vs no drug) (fraction); higher = more growth
Outline: (§1)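 Plates with 384 wells were inoculated at OD595 0.01 using 30 µl of TSB, LB Lennox or CY, or 55 µl for S. pneumoniae. Incubation was at 37 °C, with OD595 measured every 30 min for 14 h. Fitness is the stationary-phase transition optical density over the robust mean of no-drug control wells, after first-reading background subtraction; it is capped at 1.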

[2] = test system: S. aureus DSM 20231; assay: as above
Outline: as §1

[3] = test system: S. aureus Newman; assay: as above
Outline: as §1

[4] = test system: S. pneumoniae D39V; assay: as above
Outline: as §1

[5] = test system: B. subtilis 168; assay: Bliss interaction score (quartile over a dose matrix) (fitness difference); higher = more antagonism (negative = synergy)
Outline: (§2)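 Growth was read as OD595 when cultures entered stationary phase, and each value was divided by the plate's robust no-drug mean and capped at 1. This normalised ratio is the fitness value, and fitness for each single drug came from the combination data. The Bliss score subtracts the expected fitness, taken as the product, from the observed fitness and is given as quartiles across technical, biological and donor/recipient replicates.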

[6] = test system: S. aureus DSM 20231; assay: as above
Outline: as §2

[7] = test system: S. aureus Newman; assay: as above
Outline: as §2

[8] = test system: S. pneumoniae D39V; assay: as above
Outline: as §2
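Throughout, for Bliss interaction score (quartile over a dose matrix): first quartile when negative (synergy) and third quartile when positive (antagonism).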

CCCCCCCCCC(=O)N[C@@H](Cc1c[nH]c2ccccc12)C(=O)N[C@H](CC(N)=O)C(=O)N[C@@H](CC(=O)O)C(=O)N[C@@H]1C(=O)NCC(=O)N[C@@H](CCCN)C(=O)N[C@@H](CC(=O)O)C(=O)N[C@H](C)C(=O)N[C@@H](CC(=O)O)C(=O)NCC(=O)N[C@H](CO)C(=O)N[C@@H]([C@H](C)CC(=O)O)C(=O)N[C@@H](CC(=O)c2ccccc2N)C(=O)O[C@@H]1C [Daptomycin] + Cc1onc(-c2ccccc2)c1C(=O)N[C@@H]1C(=O)N2[C@@H]1SC(C)(C)[C@@H]2C(=O)O [Oxacillin]
fitness
Settings | first compound 0.125 µg/mL | first compound 0.25 µg/mL | first compound 0.5 µg/mL | first compound 1 µg/mL | first compound 2 µg/mL | first compound 4 µg/mL
[1], partner 0.002 µg/mL | 0.979 | 0.99 | 0.938 | – | – | –
[1], partner 0.004 µg/mL | 0.996 | 0.959 | 0.877 | – | – | –
[1], partner 0.008 µg/mL | 0.899 | 0.921 | 0.856 | – | – | –
[2], partner 0.0156 µg/mL | – | – | 0.864 | 0.889 | 0.794 | –
[2], partner 0.0312 µg/mL | – | – | 0.768 | 0.716 | 0.721 | –
[2], partner 0.0625 µg/mL | – | – | 0.502 | 0.501 | 0.537 | –
[3], partner 0.0156 µg/mL | 0.863 | 0.82 | 0.785 | – | – | –
[3], partner 0.0312 µg/mL | 0.752 | 0.751 | 0.768 | – | – | –
[3], partner 0.0625 µg/mL | 0.656 | 0.664 | 0.674 | – | – | –
[4], partner 0.005 µg/mL | – | – | – | ≥ 1 | 0.999 | 0.949
[4], partner 0.01 µg/mL | – | – | – | 0.951 | 0.97 | 0.956
[4], partner 0.02 µg/mL | – | – | – | 0.904 | 0.908 | 0.895
[4], partner 0.04 µg/mL | – | – | – | 0.377 | 0.382 | 0.505

fitness, one replicate
Settings | first compound 0.125 µg/mL | first compound 0.25 µg/mL | first compound 0.5 µg/mL | first compound 1 µg/mL
[1], partner 0.0078 µg/mL | – | 0.878 | 0.894 | 0.662
[1], partner 0.0155 µg/mL | – | 0.975 | 0.87 | 0.657
[1], partner 0.031 µg/mL | – | 0.888 | 0.832 | 0.302
[1], partner 0.075 µg/mL | 0.618 | 0.686 | 0.395 | –
[1], partner 0.15 µg/mL | 0.0439 | 0.032 | 0.0273 | –
[1], partner 0.3 µg/mL | 0.0398 | 0.0692 | 0.0429 | –
[2], partner 0.0156 µg/mL | 0.728 | 0.737 | – | –
[2], partner 0.0312 µg/mL | 0.677 | 0.722 | – | –
[2], partner 0.0625 µg/mL | 0.531 | 0.515 | – | –

Settings | Bliss interaction score
[5] | 0.0697
[6] | -0.0408
[7] | 0.0785
[8] | 0.0877

CCN(CC)CCOC(=O)c1ccc(N)cc1 [Procaine] + CN1C2=CC=CC=C2N=C3C1=CC=CC3=O [Pyocyanin]
fitness
Settings | first compound 85.5 µg/mL | first compound 171 µg/mL | first compound 342 µg/mL
[1], partner 1.25 µg/mL | 0.871 | 0.869 | 0.848
[1], partner 2.5 µg/mL | 0.846 | 0.863 | 0.748
[1], partner 5 µg/mL | 0.683 | 0.669 | 0.647
[2], partner 1.25 µg/mL | 0.938 | ≥ 1 | ≥ 1
[2], partner 2.5 µg/mL | 0.854 | 0.986 | ≥ 1
[2], partner 5 µg/mL | 0.54 | 0.591 | 0.56
[3], partner 1.25 µg/mL | 0.864 | 0.89 | 0.798
[3], partner 2.5 µg/mL | 0.782 | 0.748 | 0.776
[3], partner 5 µg/mL | – | 0.448 | –
[4], partner 0.325 µg/mL | ≥ 1 | 0.998 | 0.991
[4], partner 0.65 µg/mL | 0.975 | ≥ 1 | 0.966

[4], partner 1.3 µg/mL, one replicate
Settings | fitness
first compound 85.5 µg/mL | 0.433
first compound 171 µg/mL | 0.585
first compound 342 µg/mL | 0.524

Settings | Bliss interaction score
[5] | -0.0724
[6] | -0.0817
[7] | 0.148
[8] | -0.0685

CCCCCCCCCC(=O)N[C@@H](Cc1c[nH]c2ccccc12)C(=O)N[C@H](CC(N)=O)C(=O)N[C@@H](CC(=O)O)C(=O)N[C@@H]1C(=O)NCC(=O)N[C@@H](CCCN)C(=O)N[C@@H](CC(=O)O)C(=O)N[C@H](C)C(=O)N[C@@H](CC(=O)O)C(=O)NCC(=O)N[C@H](CO)C(=O)N[C@@H]([C@H](C)CC(=O)O)C(=O)N[C@@H](CC(=O)c2ccccc2N)C(=O)O[C@@H]1C [Daptomycin] + CN1C2=CC=CC=C2N=C3C1=CC=CC3=O [Pyocyanin]
fitness
Settings | first compound 0.125 µg/mL | first compound 0.25 µg/mL | first compound 0.5 µg/mL | first compound 1 µg/mL | first compound 2 µg/mL | first compound 4 µg/mL
[1], partner 1.25 µg/mL | 0.868 | 0.89 | 0.846 | – | – | –
[1], partner 2.5 µg/mL | 0.846 | 0.817 | 0.803 | – | – | –
[1], partner 5 µg/mL | 0.718 | 0.755 | 0.679 | – | – | –
[2], partner 1.25 µg/mL | – | – | 0.891 | 0.969 | 0.727 | –
[2], partner 2.5 µg/mL | – | – | 0.936 | 0.974 | 0.737 | –
[2], partner 5 µg/mL | – | – | 0.627 | 0.707 | 0.639 | –
[3], partner 1.25 µg/mL | 0.871 | 0.874 | 0.904 | – | – | –
[3], partner 2.5 µg/mL | 0.839 | 0.857 | 0.855 | – | – | –
[4], partner 0.325 µg/mL | – | – | – | ≥ 1 | ≥ 1 | 0.994
[4], partner 0.65 µg/mL | – | – | – | 0.905 | 0.944 | 0.931
[4], partner 1.3 µg/mL | – | – | – | 0.615 | 0.604 | 0.582

fitness, one replicate
Settings | partner 1.25 µg/mL | partner 2.5 µg/mL | partner 5 µg/mL
[1], first compound 1 µg/mL | 0.697 | 0.652 | 0.552
[2], first compound 0.125 µg/mL | 0.798 | 0.814 | 0.577
[2], first compound 0.25 µg/mL | 0.86 | 0.938 | 0.581

Settings | Bliss interaction score
[5] | -0.0565
[6] | -0.0886
[7] | 0.0899
[8] | -0.0802
